Measurements from the supplement of paper PMC10627819.

Tests used:
S. aureus Newman = test: Bliss interaction score (quartile over a dose matrix) (fitness difference); higher = more antagonism (negative = synergy)
Procedure, shortened: (§1)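 Fitness was derived from optical density at entry into stationary phase, divided by the robust mean of the no-drug wells on the same plate. That reading was taken as OD595, and the ratio was capped at 1. Single-drug fitness was inferred from the combination data. The Bliss score, observed fitness minus the expected product of single-drug fitness, was summarised as quartiles over technical, biological and donor/recipient replicates.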

B. subtilis 168 [1] = test: as above
Procedure, shortened: as §1

S. pneumoniae D39V [2] = test: as above
Procedure, shortened: as §1

S. aureus DSM 20231 = test: as above
Procedure, shortened: as §1

B. subtilis 168 [3] = test: fitness (endpoint OD595 vs no drug) (fraction); higher = more growth
Procedure, shortened: (§2)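 Fitness was measured as bacterial growth in 384-well plates inoculated at OD595 0.01 (30 µl, or 55 µl for S. pneumoniae). Media were TSB, LB Lennox or CY, at 37 °C. OD595 was read every 30 min for 14 h and background-subtracted against the first reading. Fitness is OD595 at the transition into stationary phase divided by the robust mean of no-drug control wells, capped at 1.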

S. pneumoniae D39V [4] = test: as above
Procedure, shortened: as §2
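For Bliss interaction score (quartile over a dose matrix) in this document: first quartile when negative (synergy) and third quartile when positive (antagonism).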

CCC[C@@H]1C[C@@H](C(=O)N[C@@H]([C@H]2O[C@H](SC)[C@H](O)[C@@H](O)[C@H]2O)[C@H](C)Cl)N(C)C1 [Clindamycin] + CCC(C)C1C(=O)NC(=C)C(=O)NC(C(=O)NC(CSCC(C(=O)N1)NC(=O)/C(=C/C)/NC(=O)C(C(C)CC)N)C(=O)NC2C(SCC(NC(=O)CNC(=O)C3CCCN3C2=O)C(=O)NC(CCCCN)C(=O)NC4C(SCC(NC(=O)CNC(=O)C(NC(=O)C(NC(=O)C(NC(=O)CNC4=O)C)CC(C)C)CCSC)C(=O)NC(CC(=O)N)C(=O)NC(CCSC)C(=O)NC(CCCCN)C(=O)NC5C(SCC6C(=O)NC(C(=O)NC(CSC(C(C(=O)N6)NC(=O)C(NC5=O)C)C)C(=O)NC(CO)C(=O)NC(C(C)CC)C(=O)NC(CC7=CN=CN7)C(=O)NC(C(C)C)C(=O)NC(=C)C(=O)NC(CCCCN)C(=O)O)CC8=CN=CN8)C)C)C)CC(C)C [Nisin]
main component drawn
Details	Bliss interaction score
B. subtilis 168 [1]	0.0605
S. aureus DSM 20231	0.0292
S. aureus Newman	0.0857
S. pneumoniae D39V [2]	-0.0351

fitness, B. subtilis 168 [3], one replicate, main component drawn
Details	first compound 0.0039 µg/mL	first compound 0.0078 µg/mL	first compound 0.0156 µg/mL	first compound 0.0625 µg/mL	first compound 0.125 µg/mL	first compound 0.25 µg/mL
partner 0.5 µg/mL	0.985	0.875	0.858	0.559	0.461	0.402
partner 1 µg/mL	0.936	0.847	0.834	0.565	0.389	0.371
partner 1.25 µg/mL	–	–	–	0.647	0.47	0.386
partner 1.6 µg/mL	–	–	–	0.455	0.196	0.0539
partner 2 µg/mL	0.855	0.771	0.742	0.261	0.25	0.0613
partner 2.5 µg/mL	–	–	–	0.564	0.423	0.275
partner 3.2 µg/mL	–	–	–	0.0252	0.0383	0.0454
partner 4 µg/mL	–	–	–	0.0334	0.0299	0.0361
partner 5 µg/mL	–	–	–	0.171	0.0548	0.0507
partner 6.4 µg/mL	–	–	–	0.0392	0.0456	0.0461
partner 8 µg/mL	–	–	–	0.0341	0.0157	0.0269
partner 16 µg/mL	–	–	–	0.0049	0.0089	0.0163

S. pneumoniae D39V [4], main component drawn
Details	fitness
first compound 0.0125 µg/mL, partner 1.6 µg/mL	0.0319
first compound 0.0125 µg/mL, partner 3.2 µg/mL	0.0224
first compound 0.0125 µg/mL, partner 6.4 µg/mL	0.0205
first compound 0.015 µg/mL, partner 0.4275 µg/mL	0.923
first compound 0.015 µg/mL, partner 1.71 µg/mL	0.11
first compound 0.025 µg/mL, partner 1.6 µg/mL	0.0417
first compound 0.025 µg/mL, partner 3.2 µg/mL	0.0389
first compound 0.025 µg/mL, partner 6.4 µg/mL	0.0111
first compound 0.03 µg/mL, partner 0.4275 µg/mL	0.774
first compound 0.03 µg/mL, partner 1.71 µg/mL	0.0769
first compound 0.05 µg/mL, partner 1.6 µg/mL	0.0221
first compound 0.05 µg/mL, partner 3.2 µg/mL	0.0421
first compound 0.05 µg/mL, partner 6.4 µg/mL	0.0305
first compound 0.06 µg/mL, partner 0.4275 µg/mL	0.645
first compound 0.06 µg/mL, partner 0.855 µg/mL	0.252
first compound 0.06 µg/mL, partner 1.71 µg/mL	0.0778

CCC[C@@H]1C[C@@H](C(=O)N[C@@H]([C@H]2O[C@H](SC)[C@H](O)[C@@H](O)[C@H]2O)[C@H](C)Cl)N(C)C1 [Clindamycin] + CN(C)C(=O)C(CCN1CCC(O)(c2ccc(Cl)cc2)CC1)(c1ccccc1)c1ccccc1 [Loperamide]
Details	Bliss interaction score
B. subtilis 168 [1]	0.149
S. aureus DSM 20231	0.0957
S. aureus Newman	-0.0895
S. pneumoniae D39V [2]	0.2

fitness, one replicate
Details	first compound 0.0039 µg/mL	first compound 0.0078 µg/mL	first compound 0.015 µg/mL	first compound 0.0156 µg/mL	first compound 0.03 µg/mL	first compound 0.06 µg/mL
B. subtilis 168 [3], partner 25 µg/mL	0.924	0.814	–	0.793	–	–
B. subtilis 168 [3], partner 50 µg/mL	0.862	0.754	–	0.595	–	–
B. subtilis 168 [3], partner 100 µg/mL	0.53	0.385	–	0.259	–	–
S. pneumoniae D39V [4], partner 68.57 µg/mL	–	–	0.982	–	0.896	0.725

Details	fitness
B. subtilis 168 [3], first compound 0.0625 µg/mL, partner 25 µg/mL	0.577
B. subtilis 168 [3], first compound 0.0625 µg/mL, partner 50 µg/mL	0.0289
B. subtilis 168 [3], first compound 0.0625 µg/mL, partner 100 µg/mL	0.0293
B. subtilis 168 [3], first compound 0.125 µg/mL, partner 25 µg/mL	0.418
B. subtilis 168 [3], first compound 0.125 µg/mL, partner 50 µg/mL	0.0399
B. subtilis 168 [3], first compound 0.125 µg/mL, partner 100 µg/mL	0.0277
B. subtilis 168 [3], first compound 0.25 µg/mL, partner 25 µg/mL	0.254
B. subtilis 168 [3], first compound 0.25 µg/mL, partner 50 µg/mL	0.0473
B. subtilis 168 [3], first compound 0.25 µg/mL, partner 100 µg/mL	0.0404
S. pneumoniae D39V [4], first compound 0.0125 µg/mL, partner 20 µg/mL	0.82
S. pneumoniae D39V [4], first compound 0.0125 µg/mL, partner 40 µg/mL	0.859
S. pneumoniae D39V [4], first compound 0.0125 µg/mL, partner 80 µg/mL	0.858
S. pneumoniae D39V [4], first compound 0.015 µg/mL, partner 17.14 µg/mL	0.938
S. pneumoniae D39V [4], first compound 0.015 µg/mL, partner 34.28 µg/mL	0.946
S. pneumoniae D39V [4], first compound 0.025 µg/mL, partner 20 µg/mL	0.614
S. pneumoniae D39V [4], first compound 0.025 µg/mL, partner 40 µg/mL	0.62
S. pneumoniae D39V [4], first compound 0.025 µg/mL, partner 80 µg/mL	0.597
S. pneumoniae D39V [4], first compound 0.03 µg/mL, partner 17.14 µg/mL	0.778
S. pneumoniae D39V [4], first compound 0.03 µg/mL, partner 34.28 µg/mL	0.769
S. pneumoniae D39V [4], first compound 0.05 µg/mL, partner 20 µg/mL	0.316
S. pneumoniae D39V [4], first compound 0.05 µg/mL, partner 40 µg/mL	0.329
S. pneumoniae D39V [4], first compound 0.05 µg/mL, partner 80 µg/mL	0.285
S. pneumoniae D39V [4], first compound 0.06 µg/mL, partner 17.14 µg/mL	0.688
S. pneumoniae D39V [4], first compound 0.06 µg/mL, partner 34.28 µg/mL	0.639

CCC[C@@H]1C[C@@H](C(=O)N[C@@H]([C@H]2O[C@H](SC)[C@H](O)[C@@H](O)[C@H]2O)[C@H](C)Cl)N(C)C1 [Clindamycin] + C[C@H]1COc2c(N3CCN(C)CC3)c(F)cc3c(=O)c(C(=O)O)cn1c23 [Levofloxacin]
Details	Bliss interaction score
B. subtilis 168 [1]	0.0326
S. aureus DSM 20231	0.0785
S. aureus Newman	0.0891
S. pneumoniae D39V [2]	0.0885

fitness, B. subtilis 168 [3], one replicate
Details	first compound 0.0039 µg/mL	first compound 0.0078 µg/mL	first compound 0.0156 µg/mL	first compound 0.0625 µg/mL	first compound 0.125 µg/mL	first compound 0.25 µg/mL
partner 0.001 µg/mL	–	–	–	0.715	0.554	0.391
partner 0.002 µg/mL	0.97	0.86	0.833	0.558	0.442	0.338
partner 0.0039 µg/mL	0.968	0.872	0.816	0.648	0.511	0.389
partner 0.0078 µg/mL	0.967	0.854	0.815	–	–	–

Details	fitness
B. subtilis 168 [3], first compound 0.0625 µg/mL, partner 0.0312 µg/mL	0.041
B. subtilis 168 [3], first compound 0.0625 µg/mL, partner 0.0625 µg/mL	0.038
B. subtilis 168 [3], first compound 0.0625 µg/mL, partner 0.125 µg/mL	0.0416
B. subtilis 168 [3], first compound 0.125 µg/mL, partner 0.0312 µg/mL	0.0414
B. subtilis 168 [3], first compound 0.125 µg/mL, partner 0.0625 µg/mL	0.0486
B. subtilis 168 [3], first compound 0.125 µg/mL, partner 0.125 µg/mL	0.0468
B. subtilis 168 [3], first compound 0.25 µg/mL, partner 0.0312 µg/mL	0.0473
B. subtilis 168 [3], first compound 0.25 µg/mL, partner 0.0625 µg/mL	0.0532
B. subtilis 168 [3], first compound 0.25 µg/mL, partner 0.125 µg/mL	0.0518
S. pneumoniae D39V [4], first compound 0.0125 µg/mL, partner 0.2 µg/mL	0.759
S. pneumoniae D39V [4], first compound 0.0125 µg/mL, partner 0.4 µg/mL	0.736
S. pneumoniae D39V [4], first compound 0.0125 µg/mL, partner 0.8 µg/mL	0.605
S. pneumoniae D39V [4], first compound 0.015 µg/mL, partner 0.1725 µg/mL	0.909
S. pneumoniae D39V [4], first compound 0.015 µg/mL, partner 0.345 µg/mL	0.865
S. pneumoniae D39V [4], first compound 0.015 µg/mL, partner 0.69 µg/mL	0.595
S. pneumoniae D39V [4], first compound 0.025 µg/mL, partner 0.2 µg/mL	0.478
S. pneumoniae D39V [4], first compound 0.025 µg/mL, partner 0.4 µg/mL	0.47
S. pneumoniae D39V [4], first compound 0.025 µg/mL, partner 0.8 µg/mL	0.39
S. pneumoniae D39V [4], first compound 0.03 µg/mL, partner 0.1725 µg/mL	0.822
S. pneumoniae D39V [4], first compound 0.03 µg/mL, partner 0.345 µg/mL	0.759
S. pneumoniae D39V [4], first compound 0.03 µg/mL, partner 0.69 µg/mL	0.546
S. pneumoniae D39V [4], first compound 0.05 µg/mL, partner 0.2 µg/mL	0.235
S. pneumoniae D39V [4], first compound 0.05 µg/mL, partner 0.4 µg/mL	0.189
S. pneumoniae D39V [4], first compound 0.05 µg/mL, partner 0.8 µg/mL	0.15
S. pneumoniae D39V [4], first compound 0.06 µg/mL, partner 0.1725 µg/mL	0.631
S. pneumoniae D39V [4], first compound 0.06 µg/mL, partner 0.345 µg/mL	0.601
S. pneumoniae D39V [4], first compound 0.06 µg/mL, partner 0.69 µg/mL	0.399
